Measurements: paper PMC5142624, “Reduced Activity of Mutant Calcium-Dependent Protein Kinase 1 Is Compensated in Plasmodium falciparum through the Action of Protein Kinase G” (mBio, 2016)

Assays:
recombinant PfCDPK1 WT [1] = target: T1, recombinant PfCDPK1 WT (Plasmodium falciparum, UniProt P62344); experiment: BKI library screening, in vitro kinase assay (KinaseGlo); format: biochemical; details: 10 µM ATP, 90 min at 30°C; two independent experiments in triplicate
T1 construct: made in house; host or cells: Escherichia coli BLR(DE3)pLysS, pGEX4T1
T1 sequence (P62344 whole entry): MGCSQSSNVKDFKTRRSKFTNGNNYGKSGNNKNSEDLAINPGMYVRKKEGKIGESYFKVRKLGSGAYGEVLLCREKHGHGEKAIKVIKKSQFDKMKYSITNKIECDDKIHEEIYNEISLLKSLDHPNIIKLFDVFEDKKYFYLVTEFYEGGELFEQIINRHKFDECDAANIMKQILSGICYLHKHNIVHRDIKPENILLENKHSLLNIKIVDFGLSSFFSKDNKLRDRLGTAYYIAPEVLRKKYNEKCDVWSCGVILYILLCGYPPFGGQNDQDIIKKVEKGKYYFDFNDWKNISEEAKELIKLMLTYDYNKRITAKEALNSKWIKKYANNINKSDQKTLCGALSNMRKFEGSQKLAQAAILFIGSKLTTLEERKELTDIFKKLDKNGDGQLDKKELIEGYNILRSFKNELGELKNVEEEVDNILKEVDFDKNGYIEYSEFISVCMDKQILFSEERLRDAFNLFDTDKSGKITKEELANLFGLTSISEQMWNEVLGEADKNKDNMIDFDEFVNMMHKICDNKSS
Description: (§1) Recombinant PfCDPK1 WT and PfCDPK1 T145M were used in the in vitro kinase assay to calculate the IC50s for the library of bumped kinase inhibitors. Thirty-one BKIs belonging to the pyrazolopyrimidine scaffold were screened ([18][–][21]). Protein kinase activity of recombinant enzymes was assayed using 20 µM synthetic peptide substrate […] […] These reactions were performed in a buffered solution containing 1 mM EGTA (pH 7.2), 10 mM MgCl2, 20 mM HEPES (pH 7.5), 0.1% BSA, and enzyme activation reagent containing 2 mM CaCl2. The reactions were initiated with addition of 10 µM ATP, and the reaction mixtures were incubated for 90 min at 30°C. […] The KinaseGlo (Promega, Madison, WI) luminescence-based assay, in which luminescence is inversely related to kinase activity and directly related to […], was used as previously described ([21]).

[2] = target: T2, recombinant PfCDPK1 T145M (Plasmodium falciparum, UniProt P62344, T145M); experiment: as above; format: biochemical; details: methionine gatekeeper mutant T145M; 10 µM ATP, 90 min at 30°C; read-out: PfCDPK1Met IC50
T2 construct: Full-length CDPK1 WT and five mutant proteins with different substitutions at the gatekeeper position (residue 145) were expressed in E. coli; made in house; host or cells: Escherichia coli BLR(DE3)pLysS, pGEX4T1
T2 sequence (P62344 whole entry T145M): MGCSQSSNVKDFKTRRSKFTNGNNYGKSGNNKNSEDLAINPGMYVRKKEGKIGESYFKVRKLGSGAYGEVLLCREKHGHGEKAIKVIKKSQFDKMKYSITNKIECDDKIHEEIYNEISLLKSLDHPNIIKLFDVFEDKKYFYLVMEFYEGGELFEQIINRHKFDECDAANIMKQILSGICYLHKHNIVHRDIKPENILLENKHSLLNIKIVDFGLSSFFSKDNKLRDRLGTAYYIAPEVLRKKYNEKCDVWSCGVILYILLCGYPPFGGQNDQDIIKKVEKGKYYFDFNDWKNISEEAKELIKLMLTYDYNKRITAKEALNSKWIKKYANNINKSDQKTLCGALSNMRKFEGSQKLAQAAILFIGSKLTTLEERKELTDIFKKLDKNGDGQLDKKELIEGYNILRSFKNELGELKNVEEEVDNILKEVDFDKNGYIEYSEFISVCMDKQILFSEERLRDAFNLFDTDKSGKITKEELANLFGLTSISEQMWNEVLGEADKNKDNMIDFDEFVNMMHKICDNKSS
Description: as §1

[3] = target: recombinant P. falciparum cGMP-dependent protein kinase (PfPKG) (Plasmodium falciparum, UniProt Q8I719); experiment: PfPKG in vitro kinase activity assay (luminescence); format: biochemical; details: 2 µM ATP, 20 µM cGMP, 2 h at 30°C; read-out: IC50 (SD) for PfPKG
Sequence of recombinant P. falciparum cGMP-dependent protein kinase (PfPKG) (Q8I719 whole entry): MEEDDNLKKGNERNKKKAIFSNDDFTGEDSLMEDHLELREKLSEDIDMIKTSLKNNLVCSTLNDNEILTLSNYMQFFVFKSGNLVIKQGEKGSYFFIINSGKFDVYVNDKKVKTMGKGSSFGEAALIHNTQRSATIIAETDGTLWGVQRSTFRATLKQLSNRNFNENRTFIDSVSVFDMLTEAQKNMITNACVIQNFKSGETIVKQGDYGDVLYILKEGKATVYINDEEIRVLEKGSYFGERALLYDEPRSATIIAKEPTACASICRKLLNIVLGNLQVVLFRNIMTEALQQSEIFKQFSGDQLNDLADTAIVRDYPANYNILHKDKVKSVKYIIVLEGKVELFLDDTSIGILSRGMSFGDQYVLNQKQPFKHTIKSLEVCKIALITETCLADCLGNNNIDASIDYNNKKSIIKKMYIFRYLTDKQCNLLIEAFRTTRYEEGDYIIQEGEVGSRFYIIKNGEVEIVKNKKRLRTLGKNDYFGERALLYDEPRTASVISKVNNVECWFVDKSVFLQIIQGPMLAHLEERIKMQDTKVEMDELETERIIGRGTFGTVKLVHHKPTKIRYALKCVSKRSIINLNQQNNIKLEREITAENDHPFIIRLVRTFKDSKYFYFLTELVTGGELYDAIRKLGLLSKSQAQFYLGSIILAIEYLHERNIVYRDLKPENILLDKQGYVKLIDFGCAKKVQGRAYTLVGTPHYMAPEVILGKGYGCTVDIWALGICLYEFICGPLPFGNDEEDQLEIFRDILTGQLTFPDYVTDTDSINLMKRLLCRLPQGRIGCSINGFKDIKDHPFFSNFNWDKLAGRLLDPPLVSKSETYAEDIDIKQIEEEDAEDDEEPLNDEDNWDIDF
Description: Compound efficacy against recombinant P. falciparum cGMP-dependent protein kinase (PfPKG) was determined using a novel nonradioactive and high-throughput assay. This assay evaluates protein kinase activity by measuring changes in […] ATP concentration via luminescence after PfPKG enzyme phosphorylation of a peptide substrate, PKCtide ([…]) (SignalChem, Richmond, BC, Canada). The in vitro kinase assay was set up with 26 µM PKCtide, 30 nM PfPKG, and 20 µM cGMP in a buffered solution containing 20 mM β-glycerol phosphate, 20 mM MgCl2, 25 mM HEPES (pH 7.5) (KOH), 0.1% bovine serum albumin (BSA), and 2 mM DTT ([37]). The reaction was initiated with addition of 2 µM ATP. The reaction mixture was incubated at 30°C and 90-rpm agitation for 2 h. Reaction wells with no PfPKG, no peptide substrate, and no cGMP were included in each assay plate as internal negative controls.

recombinant PfCDPK1 WT [4] = experiment: BKI library screening, in vitro kinase assay (KinaseGlo); format: biochemical, Plasmodium falciparum; details: PfCDPK1 WT vs T145M recombinant enzymes
Description: as §1

[5] = tested on: wild-type parasites (P. falciparum NF54); experiment: Asexual parasite growth inhibition (SYBR green I assay); format: cell-based, Plasmodium falciparum; details: BKIs
CDPK1 T145M parasites = experiment: as above; format: cell-based, Plasmodium falciparum; details: BKIs
Description: The parasites were electroporated as described earlier ([39]). Briefly, the ring-stage parasites at ~5% parasitemia were electroporated with 50 μg each of pL6CK1Met or pL6CK1Ser plasmid and pUF1 plasmid with the settings of 0.31 kV, 960 μF, and maximum capacitance on a Bio-Rad Gene Pulser II. WR99210 and DSM267 ([40]) were applied at the concentrations of 2 and 150 nM, respectively, after 24 h of transfection. The transgenic PfCDPK1 T145M parasites were cloned by limiting dilution in a 96-well plate. The PfCDPK1 gene sequence was amplified using primers ck1f1 (5′ […] 3′) and ck1r3wt (5′ […] 3′) specific for the region outside the homology arm of the plasmid, and the desired mutation was confirmed by DNA sequencing.
Asexual parasites were synchronized for two consecutive cycles by sorbitol treatment ([41]) and set up at 0.2% trophozoite stage (30 to 36 h postinvasion) in a 96-well plate. The growth progression was monitored for 7 days, and the growth rate of the parasites was calculated by sampling the culture every 24 h and measuring the fluorescence readout using the SYBR green I assay as described earlier ([42], [43]).

[6] = tested on: wild-type T. gondii parasites; parameters: method as in PMID 20436472, PMID 20485436; details: cited from earlier work

Row | Compound | IC50 (recombinant PfCDPK1 WT [1]) | IC50 [2] | IC50 [3] | fold-greater effect in vitro on wild-type enzyme than on methionine mutant (recombinant PfCDPK1 WT [4]) | EC50 [5] | EC50 (CDPK1 T145M parasites) | effect on microneme secretion and invasion of host cells [6]
1 | CCOc1ccc2cc(-c3nn(CC4CCN(C)CC4)c4ncnc(N)c34)ccc2n1 [compound 1369] | 0.438 µM | > 2 µM | > 2 µM | – | – | – | –
2 | CCOc1ccc2cc(-c3nn(CC4CCN(C)CC4)c4ncnc(N)c34)ccc2c1 [compound 1294] | 0.162 µM | > 2 µM | 0.262 µM | 10 fold | 10.9 µM | 6.97 µM | –
3 | Cc1cccc(Cc2nn(C(C)(C)C)c3ncnc(N)c23)c1 [3MBPP1] | – | – | – | – | – | – | block in microneme secretion and subsequent invasion of host cells
